Measurements taken from patent US20140228543A1, “MODIFIED AND DERIVATIZED ß-GLUCAN COMPOUNDS, COMPOSITIONS, AND METHODS” (Biothera, Inc., priority 2011, published 2014).

How the values were obtained:
Format in all cases: cell-based
[1] = tested on: human neutrophils; experiment: Neutrophil migration (chemotaxis) to serum-treated glucan
Description: This ability was measured by comparing the migratory capacity of human neutrophils to parent medium molecular weight (MMW) yeast β-glucan versus one of its derivatives, BT-1222. […] In contrast, the migration of neutrophils to MMW β-glucan or BT-1222 was 3.1 fold and 2.8 fold over medium alone, respectively.
Heparinized peripheral blood was obtained from healthy volunteers, and neutrophils were isolated by density gradient centrifugation with Ficoll-Paque followed by 3% […] sedimentation. Residual erythrocytes were removed by hypotonic lysis. Neutrophils were resuspended at 200,000 cells/ml in RPMI with 3% autologous serum (AS). MMW (3.3 mg/mL), BT-1222 (3.3 mg/mL) and PBS control were mixed with AS in 1:1 ratio and placed in a 37° C. water bath for 30 minutes. After incubation, Imprime and benzylamine-Imprime were diluted in RPMI to achieve 100, 50, 25, and 10 μg/ml concentrations with final concentration of serum being 3%. PBS control was diluted in a similar manner. […] The plate was placed in 37° C. incubator for 1 hour, lysed with 10 μl Cell-titer glo and read for luminescence on the M5 plate reader. Fold over media migration (chemotaxis) was calculated by dividing the RLU (relative luminescence units) for the treatment groups over migration to media (chemokinesis).

[2] = tested on: human neutrophils; experiment: iC3b deposition on neutrophils (flow cytometry)
Description: This ability was evaluated by comparing the levels of iC3b complement fragment detected on human neutrophils with the derivative versus parent β-glucan-bound.
Enriched neutrophils were resuspended at 1×10^6 cells/mL in RPMI 1640 supplemented with 10% serum. The parent or the derivatized glucans at 200, μg/mL hexose concentration were added to neutrophils and incubated in a 37° C., 5% C02 humidified incubator for 2 hr. After incubation, cells were washed twice with FACS buffer (HBSS supplemented with 1% FBS and 0.1% sodium azide) to remove any unbound β-glucan, stained with a neo-epitope specific anti-iC3b Ab and PE-conjugated goat anti-mouse IgG and subsequently analyzed by flow cytometry.
Table 1 below lists the fold change of mean fluorescence intensity (MFI) values of iC3b staining on neutrophils treated with each of the parent or derivatized glucans over that of PBS control-treated cells.

[3] = tested on: human neutrophils; experiment: β-glucan binding on neutrophils (BfD IV staining, flow cytometry)
Description: This ability was evaluated by comparing the levels of neutrophil-bound parent versus the derivatives of β-glucans detected by BfD IV, a monoclonal antibody (MAb) specific for β-1,3/1,6 glucans. […] Table 2 lists the fold change of MFI values of BfD IV staining on neutrophils treated with each of the parent and derivatized glucans over that of PBS control-treated cells.
Enriched neutrophils were resuspended at 1×10^6 cells/mL in RPMI 1640 supplemented with 10% serum. The parent or the derivatized glucans at 200, μg/mL hexose concentration were added to neutrophils and incubated in a 37° C., 5% CO2 humidified incubator for 2 hr. After incubation, cells were washed twice with FACS buffer (HBSS supplemented with 1% FBS and 0.1% sodium azide) to remove any unbound β-glucan, and subsequently treated with Fc block. Post Fc block step, cells were stained with the BfD IV Ab for 30 min at 4° C. and washed twice with cold FACS buffer. Cells were then incubated with FITC-conjugated F(ab′)2 goat anti-mouse IgM for 30 min at 4° C. and washed once with cold FACS buffer before fixing with 1% paraformaldehyde. Events were collected on a LSRII flow cytometer and analysis was performed using FlowJo software.
Table 2 summarizes the fold change of MFI values of BfD IV staining on neutrophils treated with each of the parent, or derivatized β-glucans, over that of PBS control-treated cells.

[4] = tested on: human peripheral blood mononuclear cells; experiment: Oxidative burst (superoxide production by cytochrome c reduction) on immobilized glucan; details: human PBMCs
Description: Dilutions of MMW and BT-1222 were prepared out-of-plate in water. Subsequently, 50 μL of each dilution were added to triplicate wells of Costar® Universal-Bind™ microtiter plates. For immobilizing the glucans on the plate, the plate was irradiated for 5 min in a UV cross-linker, and then incubated at 50° C. until completely dried. After checking for complete dryness of the plate, it was cross-linked again under UV for 5 minutes. The microtiter plates were then blocked with 0.25% bovine serum albumin (BSA) in DPBS for 30 min at room temperature. Each microtiter plate included positive control wells and negative control wells to which only water with no polysaccharide was added at this point.
The oxidative burst response was then determined by standard methods by measuring SO production through the reduction of cytochrome c. Peripheral blood mononuclear cells (PBMCs) were resuspended in HBSS/HEPES buffer with 0.25% BSA at a concentration of 4×10^6 cells/mL and maintained at 37° C. until added to the plate. A 100 μL aliquot of 200 μM bovine cytochrome c solution in HBSS/HEPES buffer previously incubated at 37° C. was added to each well. Approximately 4.0×10^5 cells, in a 100 μL volume, were subsequently added to each well of the microtiter plate. The negative assay control consisting of cells and cytochrome c was added in the uncoated negative control wells. As a positive assay control, just before reading the plate, phorbol myristate acetate (PMA) at 100 ng/mL was added as the stimulus to the cells in the uncoated positive control wells to achieve a final concentration of 50 ng/mL. The plate was maintained at 37° C., and optical density (OD) in each well was read at 550 nm every 15 min for 120 min using a spectrophotometer. For each concentration of polysaccharide, the OD change (ΔOD) was calculated from the time of minimum response (1 min) to the time of maximum response (120 mins). The rate of SO production (nmoles of SO/10^6 cells/120 mins) was calculated from the ΔOD value and the extinction coefficient of cytochrome c (21.1×103 M-1 cm-1). […]

[5] = 200 μg/mL hexose concentration, 2 hr, 37° C., 10% serum

What does the source list for “Benzyl Amine MMW Yeast Glucan Analog [BT-1222]”?
migration of neutrophils compared with parent MMW ([1]; FIG. 2): comparable; migration of neutrophils, fold over medium alone ([1]; glucan pre-incubated with autologous serum, 1 hour at 37° C.): 2.8 fold; Approximate Fold Increase/Decrease in MFI over Parent Compound (iC3b) [2, 5]: 3.0 fold; MFI(ic3b) compound/MFI(ic3b) PBS [2, 5]: 5.9 ± 2.2; staining of iC3b on glucan-bound neutrophils compared with MMW-bound neutrophils ([2]; FIG. 3 histogram): higher; Approximate Fold Increase/Decrease in MFI over Parent Compound (BfD IV) [3, 5]: 3.1 fold; MFI(BID IV) compound/MFI(BID IV) PBS [3, 5]: 13.2 ± 3.6; staining of BfD IV on glucan-bound neutrophils compared with MMW-bound neutrophils ([3]; histogram): higher; rate of superoxide production in comparison to MMW ([4]; at each concentration tested): higher; oxidative burst as measured by rate of superoxide production ([4]; plate-immobilized glucan, 120 min): dose dependent oxidative burst
